{"source": "paper PMC7142633", "about": "“Impact of B-Ring Substitution and Acylation with Hydroxy Cinnamic Acids on the Inhibition of Porcine α-Amylase by Anthocyanin-3-Glycosides” (Foods, 2020)", "key": {"[1]": {"target": "T1, α-amylase from porcine pancreas (Sus scrofa, UniProt P00690)", "T1 construct": "A saline suspension of α-amylase from porcine pancreas; purchased Sigma Aldrich (Steinheim, Germany) Lot #SLBN9170V (catalogue number not given); host or cells: porcine pancreas (tissue-derived)", "T1 sequence (P00690 16-511)": "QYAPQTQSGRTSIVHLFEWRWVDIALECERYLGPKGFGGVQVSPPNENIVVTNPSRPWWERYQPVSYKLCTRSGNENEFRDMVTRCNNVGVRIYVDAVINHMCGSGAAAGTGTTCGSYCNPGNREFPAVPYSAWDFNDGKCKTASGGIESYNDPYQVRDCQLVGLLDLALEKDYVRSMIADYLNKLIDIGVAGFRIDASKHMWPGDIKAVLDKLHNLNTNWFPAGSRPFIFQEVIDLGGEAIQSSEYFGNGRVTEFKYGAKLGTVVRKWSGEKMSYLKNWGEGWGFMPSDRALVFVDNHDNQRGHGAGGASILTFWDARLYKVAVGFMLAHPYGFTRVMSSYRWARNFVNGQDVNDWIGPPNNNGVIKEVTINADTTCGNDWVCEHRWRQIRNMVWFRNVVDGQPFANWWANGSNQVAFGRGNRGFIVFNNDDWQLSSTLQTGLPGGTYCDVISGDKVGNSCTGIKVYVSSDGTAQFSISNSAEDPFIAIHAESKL", "test": "Isothermal titration calorimetry, single injection, GalG2CNP conversion", "assay_type": "biochemical", "conditions": "100 µM inhibitor, 0.95 mM substrate, 37 °C", "description": "To evaluate the inhibitory strength of 100 µM anthocyanin-3-glucosides and black carrot anthocyanins, GalG2CNP conversion to CNP was monitored by the released heat. According to the previous study, ITC measurements were carried out in a single injection experiment set-up on a MICROCALTM PEAQ-ITC calorimeter (S/N MAL1188053, Malvern Panalytical Almelo, Netherlands). Following an equilibration time of 10 min, 1 µL α-amylase (1 µM in 50 mM MES^+ buffer) was added to 0.95 mM of the substrate with or without 100 µM of the phenolic inhibitor in the cell (Vcell = 0.207 mL). The temperature was maintained at 37 °C and the sample was stirred at 750 rpm throughout. The feedback/gain mode was set to high. The resulting heat profile was transformed and the conversion rate was plotted against the substrate concentration [S] by an origin routine template provided by Malvern® for Origin version 7."}, "[2]": {"target": "T1, α-amylase from porcine pancreas", "test": "α-amylase enzyme activity assay, GalG2CNP conversion, UV/Vis detection of CNP at 405 nm", "assay_type": "biochemical", "conditions": "for conversion rate (v0) / inhibitory effect in UV/Vis assay: black carrot anthocyanins, 12.5−50 µM, artifact, simulated accelerated conversion; for Ki: global fit, 12.5, 25, 50 µM, UV/Vis artifact", "description": "The enzyme activity assay, […], was established by Homoki and co-workers and already used by the authors to evaluate the inhibitory strength of different phenolic structures. To enable the evaluation of the result obtained in the present study compared to the non-anthocyanin phenolics investigated previously, the assay conditions were identical. In short, to 12 different GalG2CNP concentrations ([S] = 0−2000 µM) in MES^+ buffer, inhibitor [I] and 50 µL enzyme solution (c = 1.51 units/~100 pM, on the basis of supplier information) were mixed in a microtiter plate (Greiner BioOne, Frickenhausen, Germany; transparent, F-bottom). For blanks, the enzyme solution was substituted with MES^+ buffer. The final volume per well was 250 µL. To quantify the reaction product, a linear calibration with eight different CNP concentrations in the range of 0−35 µM was performed for each plate. Dilutions of the anthocyanin stock solutions (0.1% HCl) were equilibrated at pH 6.1 for one hour. Final inhibitor concentrations were limited due to its strong absorption at 405 nm to 12.5, 25, and 50 µM. For each anthocyanin structure, the assay was conducted on two to three different days with freshly prepared stocks of substrate, enzyme, and inhibitor.\nIn addition to the Michaelis Menten constant (Km) and the maximal conversion rate (vmax) values (Table S1), inhibition constants (Kic, Kiu) were calculated by fitting the data by two approaches: (i) According to the mixed inhibition equation (Equation (4)) or competitive inhibition equation (Equation (5)), applying an optimal global fit containing data from all inhibitor concentrations including the control ([I] = 0 µM); and (ii) by an independent fit according to the Michaelis Menten equation (Equation (6)), providing the apparent values Km^app and Vmax^app (Table S2) for each inhibitor concentration, which were then used to calculate the inhibition constants (Equations (7) and (8)). (4) v0= vmax/Km/[S] · (1+[I]/Kic)+(1+[I]/Kiu), (5) v0=vmax/Km/[S] · ( 1+[I]/Kic)+1, (6) v0=vmax · [S]/Km+[S], (7) Kic=vmax^app/Km^app · [I]/vmax/Km−vmax^app/Km^app, (8) Kiu=vmax^app · [I]/vmax− vmax^app.\nThe IC50 values of the different anthocyanins were derived from the inhibition constants for different substrate concentrations by the Cheng−Prusoff equation (Equation (9)). (9) IC50=(Km+[S])/Km/Kic+[S]/Kiu.\n• KM: Michaelis Menten constant (µM) • vmax: Maximal conversion rate of the uninhibited reaction (µM/min) • v0: Observed conversion rate at given substrate and inhibitor concentration (µM/min) • [S]: Substrate concentration • [I]: Inhibitor concentration • Kic: Inhibitor constant, reflecting the competitive inhibition in the equation (µM) • Kiu: Inhibitor constant, reflecting the uncompetitive inhibition in the equation (µM) • vmax^app: Calculated maximal conversion rate, when the Michaelis Menten equation is used on an inhibited curve (µM/min) • Km^app: Calculated Michaelis Menten constant, when the Michaelis Menten equation is used on an inhibited curve (µM) • IC50: Half maximal inhibitory concentration (inhibitor concentration needed to achieve 50% inhibition; it is dependent on the substrate concentration) (µM)\nFor data analyses and calculations, Origin 2018b (OriginLab, software extension Enzyme Kinetics) was used. The Levenberg−Marquardt algorithm procedure was chosen for iteration. All assays were performed in two independent replicates at different dates. Values are expressed in arithmetic means ± average deviation (AD). The statistical significance and differences between groups were analyzed by one-way analysis of variance (ANOVA), followed by Tukey’s test. Differences were considered significant when p < 0.05. Data were processed using Microsoft Excel® (2010)."}, "[3]": {"target": "human salivary α-amylase", "set-up": "method as in PMID 26471548", "conditions": "cited from earlier work"}, "[4]": {"target": "porcine pancreatic α-amylase", "set-up": "method as in doi:10.1016/j.jff.2015.11.042", "conditions": "cited from earlier work"}, "[5]": {"target": "T1, α-amylase from porcine pancreas", "conditions": "cited from earlier work; for IC50: read-out: IC50 (Cheng−Prussoff, Equation (9)); for Kmapp / vmaxapp: Michaelis Menten fit"}}, "note": "“And” between values parts separate entries of the source, which are not always exact repeats. Equal values may be shown once. “Also recorded” adds a separate entry of the source. Read-outs that look alike come from different tables or passages of the source. Marks after values point to notes of the source that are not given here."}
{"smiles": "OC[C@H]1O[C@@H](Oc2cc3c(O)cc(O)cc3[o+]c2-c2ccc(O)c(O)c2)[C@H](O[C@@H]2OC[C@@H](O)[C@H](O)[C@H]2O)[C@@H](O)[C@H]1O", "note": "[BC 2, cyanidin-3-xylosyl-galactoside]", "values": [{"measurement": "inhibitory strength by ITC (thermogram, Michaelis Menten plot)", "setting": "[1]", "result": "no significant difference"}, {"measurement": "conversion rate (v0) / inhibitory effect in UV/Vis assay", "setting": "[2]", "result": "minor inhibitory effect"}]}
{"smiles": "COc1cc(/C=C/C(=O)OC[C@H]2O[C@@H](OC[C@H]3O[C@@H](Oc4cc5c(O)cc(O)cc5[o+]c4-c4ccc(O)c(O)c4)[C@H](O[C@@H]4OC[C@@H](O)[C@H](O)[C@H]4O)[C@@H](O)[C@H]3O)[C@H](O)[C@@H](O)[C@@H]2O)ccc1O", "note": "[BC 4]", "values": [{"measurement": "inhibitory strength by ITC (thermogram, Michaelis Menten plot)", "setting": "[1]", "result": "significantly stronger inhibition of BC 4 compared to the non-acylated BC 2 and Cyd-3-glc"}, {"measurement": "conversion rate (v0) / inhibitory effect in UV/Vis assay", "setting": "[2]", "result": "inhibits best"}, {"measurement": "inhibition type", "setting": "[2]; from fits and Lineweaver−Burk / Hanes plots", "result": "complete competitive inhibition; also recorded: predominantly competitive inhibition"}, {"measurement": "Ki", "setting": "[2]; Competitive Inhibition (Equation (5)), rough estimation, read-out: Kic", "result": "~20 µM and 20 µM"}, {"measurement": "Ki", "setting": "[2]; Mixed Inhibition (Equation (4)), read-out: Kiu", "result": "98 ± 139", "unit": "µM"}, {"measurement": "Ki", "setting": "[2]; Mixed Inhibition (Equation (4)), rough estimation, read-out: Kic", "result": "23 ± 3", "unit": "µM"}]}
{"smiles": "C[C@@H]1O[C@@H](OC[C@H]2O[C@@H](Oc3cc4c(O)cc(O)cc4[o+]c3-c3ccc(O)c(O)c3)[C@H](O)[C@@H](O)[C@@H]2O)[C@H](O)[C@H](O)[C@H]1O", "note": "[Cyd-3-rut]", "values": [{"measurement": "IC50", "setting": "[3]", "result": "200 ± 24", "unit": "µM"}, {"measurement": "IC50", "setting": "[4]", "result": "31 ± 7", "unit": "µM"}]}
{"smiles": "COc1cc(-c2[o+]c3cc(O)cc(O)c3cc2O[C@@H]2O[C@H](CO)[C@@H](O)[C@H](O)[C@H]2O)cc(OC)c1O", "note": "[Mlv-glc, malvidin-3-glucoside]", "values": [{"measurement": "inhibitory strength by ITC (thermogram, Michaelis Menten plot)", "setting": "[1]", "result": "Mlv-3-glc > Cyd-3-glc > Dpd-3-glc~Peo-3-glc"}, {"measurement": "IC50", "setting": "[3]", "result": "675 ± 73", "unit": "µM"}, {"measurement": "inhibition type", "setting": "[3]", "result": "competitive inhibition type"}, {"measurement": "Kic/Kiu", "setting": "[5]; (i) global fit, Equation (4)", "result": "0.32 ± 0.07 ^a"}, {"measurement": "Ki", "setting": "[5]; (i) global fit, mixed inhibition Equation (4), read-out: Kic", "result": "44 ± 4", "unit": "µM"}, {"measurement": "Ki", "setting": "[5]; (i) global fit, mixed inhibition Equation (4), read-out: Kiu", "result": "143 ± 44", "unit": "µM"}, {"measurement": "IC50", "setting": "[5]; (i) global fit, [S] 10 µM", "result": "46 ± 4", "unit": "µM"}, {"measurement": "IC50", "setting": "[5]; (i) global fit, [S] 100 µM", "result": "58 ± 7", "unit": "µM"}, {"measurement": "IC50", "setting": "[5]; (i) global fit, [S] 10^3 µM", "result": "106 ± 24", "unit": "µM"}, {"measurement": "IC50", "setting": "[5]; (i) global fit, [S] 10^6 µM", "result": "143 ± 44", "unit": "µM"}, {"measurement": "Ki", "setting": "[5]; (ii) independent Michaelis Menten fit, Equation (7), read-out: Kic", "result": "69 ± 17", "unit": "µM"}, {"measurement": "Ki", "setting": "[5]; (ii) independent Michaelis Menten fit, Equation (8), read-out: Kiu", "result": "147 ± 50", "unit": "µM"}, {"measurement": "Kic/Kiu", "setting": "[5]; (ii) independent fit, Equations (7) and (8)", "result": "0.58 ± 0.35 ^a"}, {"measurement": "IC50", "setting": "[5]; (ii) independent fit, [S] 10 µM", "result": "71 ± 16", "unit": "µM"}, {"measurement": "IC50", "setting": "[5]; (ii) independent fit, [S] 100 µM", "result": "83 ± 10", "unit": "µM"}, {"measurement": "IC50", "setting": "[5]; (ii) independent fit, [S] 10^3 µM", "result": "121 ± 21", "unit": "µM"}, {"measurement": "IC50", "setting": "[5]; (ii) independent fit, [S] 10^6 µM", "result": "147 ± 50", "unit": "µM"}, {"measurement": "Kmapp", "setting": "[5]; inhibitor c 25 µM", "result": "216 ± 3", "unit": "µM"}, {"measurement": "vmaxapp", "setting": "[5]; inhibitor c 25 µM", "result": "0.67 ± 0.16", "unit": "µM/min"}, {"measurement": "Kmapp", "setting": "[5]; inhibitor c 50 µM", "result": "337 ± 4", "unit": "µM"}, {"measurement": "vmaxapp", "setting": "[5]; inhibitor c 50 µM", "result": "0.60 ± 0.20", "unit": "µM/min"}, {"measurement": "Kmapp", "setting": "[5]; inhibitor c 12,5 µM", "result": "194 ± 22", "unit": "µM"}, {"measurement": "vmaxapp", "setting": "[5]; inhibitor c 12,5 µM", "result": "0.74 ± 0.24", "unit": "µM/min"}, {"measurement": "Ki", "setting": "[5]; from apparent values, inhibitor c 25 µM, read-out: Kic", "result": "74 ± 1", "unit": "µM"}, {"measurement": "Ki", "setting": "[5]; from apparent values, inhibitor c 25 µM, read-out: Kiu", "result": "150 ± 14", "unit": "µM"}, {"measurement": "Ki", "setting": "[5]; from apparent values, inhibitor c 50 µM, read-out: Kic", "result": "36 ± 6", "unit": "µM"}, {"measurement": "Ki", "setting": "[5]; from apparent values, inhibitor c 50 µM, read-out: Kiu", "result": "159 ± 66", "unit": "µM"}, {"measurement": "Ki", "setting": "[5]; from apparent values, inhibitor c 12,5 µM, read-out: Kic", "result": 139, "unit": "µM"}, {"measurement": "Ki", "setting": "[5]; from apparent values, inhibitor c 12,5 µM, read-out: Kiu", "result": 84, "unit": "µM"}, {"measurement": "Ki", "setting": "[5]; mean over inhibitor c 12,5, 25, 50 µM (Supplementary 2), read-out: Kic mean ± SD", "result": "83 ± 52", "unit": "µM"}, {"measurement": "Ki", "setting": "[5]; mean over inhibitor c 12,5, 25, 50 µM (Supplementary 2), read-out: Kiu mean ± SD", "result": "131 ± 41", "unit": "µM"}]}
